These results are taken from patent US20140106356A1, “KIT FOR DRUG METABOLISM DETERMINATION AND TOXICITY PREDICTION” (NATIONAL TAIWAN UNIVERSITY, priority 2012, published 2014).

The series deals with CYP1B1. Briefly: Cell-based CYP1B1 enzyme activity assay (Luciferin-CEE luminescence, normalized to genomic DNA) in 10F-HDF spheroid-scaffold culture. To be noted: addition to the spheroid-scaffold culture of 10F-HDFs (GCH tri-copolymer scaffold); FIG. 5B.

SMILES strings stand for the structures.

Regarding `COc1ccc2[nH]c([S+]([O-])Cc3ncc(C)c(OC)c3C)nc2c1` (stereo not shown) [omeprazole], the “induction of CYP1B1 activities” value is reported as “did not induce”.
